Publication PMC2095803 (Nucleic Acids Research, 2007)

Assays:
Bst DNA polymerase [1] = target: T1, Bst DNA polymerase (Geobacillus stearothermophilus, UniProt P52026); assay: PEP; type: biochemical, Bacillus stearothermophilus
T1 sequence (P52026 289-876 limits assumed): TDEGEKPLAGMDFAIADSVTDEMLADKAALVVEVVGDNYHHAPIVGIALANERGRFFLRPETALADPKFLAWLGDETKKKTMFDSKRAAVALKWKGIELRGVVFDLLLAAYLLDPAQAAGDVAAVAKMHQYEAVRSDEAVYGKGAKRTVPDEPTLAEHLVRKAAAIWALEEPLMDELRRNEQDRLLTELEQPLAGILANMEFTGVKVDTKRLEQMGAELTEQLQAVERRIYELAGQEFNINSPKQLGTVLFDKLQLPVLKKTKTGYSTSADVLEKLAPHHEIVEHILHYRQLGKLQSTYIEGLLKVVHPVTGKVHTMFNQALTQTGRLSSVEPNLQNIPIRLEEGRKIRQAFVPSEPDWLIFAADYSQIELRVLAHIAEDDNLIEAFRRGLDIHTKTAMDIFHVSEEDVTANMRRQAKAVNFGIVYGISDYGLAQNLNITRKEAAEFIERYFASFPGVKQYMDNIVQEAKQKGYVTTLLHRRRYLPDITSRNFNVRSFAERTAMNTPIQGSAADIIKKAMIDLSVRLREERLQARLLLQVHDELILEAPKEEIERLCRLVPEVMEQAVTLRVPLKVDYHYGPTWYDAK

Taq DNA polymerase [2] = target: T2, Taq DNA polymerase (Thermus aquaticus, UniProt P19821); assay: PEP; type: biochemical, Thermus aquaticus YT-1
T2 sequence (P19821 whole entry): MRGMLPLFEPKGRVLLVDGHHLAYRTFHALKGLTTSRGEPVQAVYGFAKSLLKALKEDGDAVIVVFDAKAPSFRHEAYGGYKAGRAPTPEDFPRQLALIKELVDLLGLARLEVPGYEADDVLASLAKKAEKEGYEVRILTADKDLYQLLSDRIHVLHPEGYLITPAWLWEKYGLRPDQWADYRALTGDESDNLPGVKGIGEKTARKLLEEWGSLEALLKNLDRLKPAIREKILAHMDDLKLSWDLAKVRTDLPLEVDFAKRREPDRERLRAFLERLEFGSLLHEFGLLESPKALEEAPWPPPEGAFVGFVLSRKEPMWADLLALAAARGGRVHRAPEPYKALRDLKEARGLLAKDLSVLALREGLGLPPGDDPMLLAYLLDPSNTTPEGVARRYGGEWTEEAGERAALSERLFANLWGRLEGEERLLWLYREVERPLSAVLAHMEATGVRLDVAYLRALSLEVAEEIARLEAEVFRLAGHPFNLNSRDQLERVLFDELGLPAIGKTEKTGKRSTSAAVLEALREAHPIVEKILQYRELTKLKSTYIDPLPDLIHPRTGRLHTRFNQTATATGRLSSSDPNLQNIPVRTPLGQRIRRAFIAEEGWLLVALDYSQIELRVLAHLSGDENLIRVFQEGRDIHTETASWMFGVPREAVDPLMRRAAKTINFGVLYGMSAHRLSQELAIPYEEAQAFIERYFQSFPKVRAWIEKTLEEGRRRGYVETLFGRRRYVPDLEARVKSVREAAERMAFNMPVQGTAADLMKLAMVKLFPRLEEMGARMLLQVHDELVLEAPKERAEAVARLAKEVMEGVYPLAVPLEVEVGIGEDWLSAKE

[3] = target: AmpliTaqFS DNA polymerase (Thermus aquaticus, UniProt P19821, F667Y/G46D); assay: PEP; type: biochemical, Thermus aquaticus YT-1
Sequence of AmpliTaqFS DNA polymerase (P19821 whole entry G46D/F667Y): as the sequence (P19821 whole entry) above, with G46D, F667Y counted along it

[4] = target: T3, Therminator DNA polymerase (Thermococcus sp., UniProt Q56366, A485L/D141A/E143A); assay: PEP; type: biochemical, Thermococcus species 9ºN-7
T3 sequence (Q56366 1-775 D141A/E143A/A485L): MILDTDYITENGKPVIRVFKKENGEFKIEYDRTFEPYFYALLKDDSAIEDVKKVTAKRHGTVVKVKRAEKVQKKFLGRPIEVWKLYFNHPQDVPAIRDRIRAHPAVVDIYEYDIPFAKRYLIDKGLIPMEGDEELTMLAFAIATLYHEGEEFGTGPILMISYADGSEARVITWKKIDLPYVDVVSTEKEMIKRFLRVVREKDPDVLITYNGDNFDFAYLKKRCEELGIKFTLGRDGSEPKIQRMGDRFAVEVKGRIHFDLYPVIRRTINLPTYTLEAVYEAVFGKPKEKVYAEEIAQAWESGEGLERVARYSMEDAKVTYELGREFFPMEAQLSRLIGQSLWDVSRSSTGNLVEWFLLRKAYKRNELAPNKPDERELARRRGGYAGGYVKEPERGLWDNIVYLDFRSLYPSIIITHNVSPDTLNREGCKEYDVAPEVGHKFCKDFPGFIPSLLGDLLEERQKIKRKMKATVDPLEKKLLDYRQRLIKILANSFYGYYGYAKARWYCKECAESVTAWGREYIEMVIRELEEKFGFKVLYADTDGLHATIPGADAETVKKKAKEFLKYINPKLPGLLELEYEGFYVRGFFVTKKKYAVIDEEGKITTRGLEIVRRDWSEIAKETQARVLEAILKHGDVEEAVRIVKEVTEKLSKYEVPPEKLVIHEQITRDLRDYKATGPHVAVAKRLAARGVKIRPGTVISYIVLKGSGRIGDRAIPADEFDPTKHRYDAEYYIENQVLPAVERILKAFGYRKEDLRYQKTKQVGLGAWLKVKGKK

[5] = target: T4, DeepVent(exo−) DNA polymerase (Pyrococcus sp. GB-D, UniProt Q51334, D141A/E143A); assay: PEP; type: biochemical, Pyrococcus species GB-D
T4 sequence (Q51334 with tags, fused parts or gaps D141A/E143A): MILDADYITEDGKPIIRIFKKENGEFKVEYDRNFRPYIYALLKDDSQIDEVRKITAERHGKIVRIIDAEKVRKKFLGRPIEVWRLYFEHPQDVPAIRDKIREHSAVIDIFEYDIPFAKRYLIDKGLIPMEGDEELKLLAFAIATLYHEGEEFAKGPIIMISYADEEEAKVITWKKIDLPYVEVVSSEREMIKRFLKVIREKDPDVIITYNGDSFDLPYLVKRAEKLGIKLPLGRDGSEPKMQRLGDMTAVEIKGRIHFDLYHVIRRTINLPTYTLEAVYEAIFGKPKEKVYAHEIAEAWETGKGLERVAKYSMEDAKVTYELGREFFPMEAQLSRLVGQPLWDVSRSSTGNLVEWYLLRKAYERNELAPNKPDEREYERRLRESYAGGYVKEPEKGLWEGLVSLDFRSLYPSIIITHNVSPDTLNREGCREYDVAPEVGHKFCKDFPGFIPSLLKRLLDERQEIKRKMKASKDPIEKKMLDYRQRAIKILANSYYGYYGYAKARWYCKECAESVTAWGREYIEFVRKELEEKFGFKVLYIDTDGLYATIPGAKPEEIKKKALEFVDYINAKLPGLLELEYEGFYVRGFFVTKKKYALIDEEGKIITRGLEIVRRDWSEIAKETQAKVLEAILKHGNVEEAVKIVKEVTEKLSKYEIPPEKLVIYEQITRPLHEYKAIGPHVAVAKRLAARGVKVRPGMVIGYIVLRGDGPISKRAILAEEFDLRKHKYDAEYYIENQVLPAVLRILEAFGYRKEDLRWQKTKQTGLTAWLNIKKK

[6] = target: Klenow(exo−) DNA polymerase (Escherichia coli, UniProt P00582, D355A/E357A); assay: PEP termination assay; type: biochemical
Taq DNA polymerase [7] = target: T2, Taq DNA polymerase; assay: PEP termination assay; type: biochemical, Thermus aquaticus YT-1
[8] = target: T3, Therminator DNA polymerase; assay: PEP termination assay; type: biochemical, Thermococcus species 9ºN-7
Bst DNA polymerase [9] = target: T1, Bst DNA polymerase; assay: Oligonucleotide template assay; type: biochemical, Bacillus stearothermophilus; details: Bst; final concentration of 200 nM
[10] = AmpliTaqFS, ratio of IC50 values
[11] = Therminator, ratio of IC50 values
[12] = Klenow(exo−), 25× IC50, oligoTemplate-3

For Nc1ncnc2c1ncn2[C@H]1CC[C@@H](COP(=O)(O)OP(=O)(O)OP(=O)(O)O)O1 [ddATP, 2′,3′-dideoxyadenosine triphosphate, reference compound], the IC50 (Bst DNA polymerase [1]) was 370 ± 30 nM, the “Incorporation bias ddATP/dATP” value (Bst DNA polymerase [1]; Bst, ratio of IC50 values) was 310 and the IC50 (Taq DNA polymerase [2]) was 12600 ± 900 nM. The “Incorporation bias ddATP/dATP” value (Taq DNA polymerase [2]; Taq, ratio of IC50 values) was 2300, the IC50 [3] was 3.3 ± 0.1 nM and the “Incorporation bias ddATP/dATP” value [3, 10] was 0.62. For the same molecule, the IC50 [4] was 9.7 ± 1.1 nM, the “Incorporation bias ddATP/dATP” value [4, 11] was 4.2 and the IC50 [5] was 3400 ± 400 nM.
For O=[N+]([O-])c1ccccc1CNc1ncnc2c1ncn2[C@H]1C[C@H](O)[C@@H](COP(=O)(O)OP(=O)(O)OP(=O)(O)O)O1 [Compound IIIc, N^6-(2-Nitrobenzyl)-2’-deoxyadenosine-5’-triphosphate], the “Incorporation bias Cpd IIIc/dATP” value (Bst DNA polymerase [1]; Bst, ratio of IC50 values) was 18, the “Incorporation bias Cpd IIIc/ddATP” value (Bst DNA polymerase [1]; Bst, ratio of IC50 values) was 0.057 and the “Incorporation bias Cpd IIIc/dATP” value (Taq DNA polymerase [2]; Taq, ratio of IC50 values) was 380. The “Incorporation bias Cpd IIIc/ddATP” value (Taq DNA polymerase [2]; Taq, ratio of IC50 values) was 0.17, the “Incorporation bias Cpd IIIc/dATP” value [3, 10] was 170 and the “Incorporation bias Cpd IIIc/ddATP” value [3, 10] was 270. The “Incorporation bias Cpd IIIc/dATP” value [4, 11] was 1.3, the “Incorporation bias Cpd IIIc/ddATP” value [4, 11] was 0.32 and the IC50 [5] was 11 ± 0.6 nM. The IC50 [6] was 4.3 nM, the “% 1st Base” value [6, 12] was 76.1 ± 1.8% and the “% 2nd Base” value [6, 12] was 6.2 ± 0.5%. The “% Primer” value [6, 12] was 17.7 ± 2.2%, the IC50 (Taq DNA polymerase [7]) was 300 nM and the “% 1st Base” value (Taq DNA polymerase [7]; Taq, 25× IC50, oligoTemplate-3) was 98.7 ± 0.4%. The “% 2nd Base” value (Taq DNA polymerase [7]; Taq, 25× IC50, oligoTemplate-3) was less than 0.1%, the “% Primer” value (Taq DNA polymerase [7]; Taq, 25× IC50, oligoTemplate-3) was 1.3 ± 0.4% and the IC50 [8] was 1.8 nM. For the same molecule, the “Incorporation / termination of DNA synthesis” value (Bst DNA polymerase [9]) was “efficient, base-specific termination of DNA synthesis”.
